Measurements published in patent US7709539B2, “Therapeutic use of resveratrol for hyperglycemia” (Chang Gung University, priority 2004, dated 2010).

Key:
Format in all cases: in vivo, rat
[1] = system: SD rats injected with insulin; assay: Development of insulin resistance and body weight increase in insulin-injected SD rats
Method: A. Insulin Resistance: Male SD rats were intraperitoneally injected with insulin (Monotard®HM; Novo Nordisk, Bagsvaerd, Denmark, 0.5 IU/kg, tid) for 2 weeks. The development of insulin resistance is confirmed by a tolbutamide test (11). Male SD rats were intraperitoneally injected with insulin at 0.5 IU/kg, tid with or without resveratrol feeding (0.5 mg/kg BW, bid) Animals without resveratrol feeding started to develop insulin resistance on day 16.5±1.5. In contrast, development of insulin resistance in the resveratrol-fed animals was delayed till 23.5±1.5 days. In addition, resveratrol reduced the body weight increase by 6% compared with the untreated insulin-resistant animals (FIG. 6)

[2] = system: NIDDM insulin-resistant SD rats; assay: Antihyperglycemic effect in NIDDM insulin-resistant SD rats (insulin-induced)
Method: Resveratrol was first dissolved in DMS0 and diluted to 0.05 mg, 0.1 mg and 0.5 mg per ml wit normal saline. Animals were fed with desired amounts of drug solutions though tubing from the mouth into the stomach. A. Insulin Resistance: Male SD rats were intraperitoneally injected with insulin (Monotard®HM; Novo Nordisk, Bagsvaerd, Denmark, 0.5 IU/kg, tid) for 2 weeks. The development of insulin resistance is confirmed by a tolbutamide test (11). Normal, IDDM, and NIDDM SD rats were fasted for 8 hrs and anesthetized by pentobarbital (30 mg/kg, ip). Animals were fed with different dosages of resveratrol (0.05 mg, 0.1 mg, or 0.5 mg per kg body weight), and blood samples were then collected from femoral vein at the time points 0, 60, 90, and 120 min. Ten μl plasma was mixed with 1 ml glucose kit reagent and incubated at 37° C. for 10 min. The blood sugar level was determined as described. […]. Data were expressed as mean±standard error (S.E.). Statistical analysis was performed using ANOVA (analysis of variance) followed by Dunnett test, and the significant difference was set at P<0.05. NIDDM rats were fed with resveratrol and blood sugar was then measured as described.

NIDDM SD rats = assay: Antihyperglycemic effect in NIDDM SD rats (nicotinamide/STZ-induced); conditions: 0.1 mg/kg oral
Method: Resveratrol was first dissolved in DMS0 and diluted to 0.05 mg, 0.1 mg and 0.5 mg per ml wit normal saline. Animals were fed with desired amounts of drug solutions though tubing from the mouth into the stomach. B. NIDDM: Male SD rats were fasted for 48 hrs and anesthetized by intraperitoneal injection of pentobarbital at 30 mg/kg body weight. Animals were then injected with nicotinamide (100 mg/kg, ip) and streptozotocin (65 mg/kg, iv). Four weeks later, plasma glucose concentration was determined by the glucose oxidase method (Chemistry Analyzer; Autoanalyzer Quik-Lab., Ames, Spain). Animals with fasting blood sugar levels around 200 mg/dl and the development of an obese phenotype are classified as being induced to NIDDM. Normal, IDDM, and NIDDM SD rats were fasted for 8 hrs and anesthetized by pentobarbital (30 mg/kg, ip). Animals were fed with different dosages of resveratrol (0.05 mg, 0.1 mg, or 0.5 mg per kg body weight), and blood samples were then collected from femoral vein at the time points 0, 60, 90, and 120 min. Ten μl plasma was mixed with 1 ml glucose kit reagent and incubated at 37° C. for 10 min. The blood sugar level was determined as described. Data were expressed as mean±standard error (S.E.). […] NIDDM rats were fed with resveratrol and blood sugar was then measured as described.

normal SD rats = assay: Hypoglycemic effect in normal SD rats (blood sugar); conditions: for reduction of blood sugar: normal SD rats, 90 min after drug feeding
Method: Eight week-old Sprague Dawley (SD) rats (body weight from 200 gm to 250 gm) were maintained in the Animal Center of the Chang (Jung Memorial Hospital, under an ambient temperature of 25±1° C. and a light-dark period of 12 hrs. Animals were fed with normal chow and water. Resveratrol was first dissolved in DMS0 and diluted to 0.05 mg, 0.1 mg and 0.5 mg per ml wit normal saline. Animals were fed with desired amounts of drug solutions though tubing from the mouth into the stomach. Normal, IDDM, and NIDDM SD rats were fasted for 8 hrs and anesthetized by pentobarbital (30 mg/kg, ip). Animals were fed with different dosages of resveratrol (0.05 mg, 0.1 mg, or 0.5 mg per kg body weight), and blood samples were then collected from femoral vein at the time points 0, 60, 90, and 120 min. Ten μl plasma was mixed with 1 ml glucose kit reagent and incubated at 37° C. for 10 min. The blood sugar level was determined as described. […]. Data were expressed as mean±standard error (S.E.). Statistical analysis was performed using ANOVA (analysis of variance) followed by Dunnett test, and the significant difference was set at P<0.05. Male SD rats were fed with resveratrol at 0.05 mg, 0.1 mg, or 0.5 mg per kg body weight and plasma glucose level was measured at 90 min after drug feeding.

IDDM SD rats = assay: Antihyperglycemic effect in IDDM SD rats (STZ-induced); conditions: 90 min after drug feeding
Method: Resveratrol was first dissolved in DMS0 and diluted to 0.05 mg, 0.1 mg and 0.5 mg per ml wit normal saline. Animals were fed with desired amounts of drug solutions though tubing from the mouth into the stomach. Male rats were fasted for […] and anesthetized by intraperitoneal injection of pentobarbital at 30 mg/kg body weight. Animals were then injected with freshly prepared streptozotocin (STZ) solution at 65 mg/kg body weight intravenously. Three days later, blood sugar was measured. Animals with blood sugar levels above 400 mg/dl and symptoms of polyphagia, polyuria and polydipsia are classified as being induced to IDDM. Normal, IDDM, and NIDDM SD rats were fasted for 8 hrs and anesthetized by pentobarbital (30 mg/kg, ip). Animals were fed with different dosages of resveratrol (0.05 mg, 0.1 mg, or 0.5 mg per kg body weight), and blood samples were then collected from femoral vein at the time points 0, 60, 90, and 120 min. Ten μl plasma was mixed with 1 ml glucose kit reagent and incubated at 37° C. for 10 min. The blood sugar level was determined as described. Data were expressed as mean±standard error (S.E.). […] IDDM SD rats were fed with resveratrol at 0.05 mg, 0.1 mg, or 0.5 mg per kg body weight and the blood sugar was measured at 90 min after drug feeding.

Oc1ccc(C=Cc2cc(O)cc(O)c2)cc1 [resveratrol]
time to development of insulin resistance ([1]; insulin 0.5 IU/kg ip tid with resveratrol feeding 0.5 mg/kg BW bid, without resveratrol day 16.5±1.5): 23.5 ± 1.5 days | reduction of body weight increase compared with untreated insulin-resistant animals ([1]; insulin-resistant SD rats, resveratrol 0.5 mg/kg BW bid): 6% | reduction of blood sugar ([2]; NIDDM insulin-resistant SD rats, 0.5 mg/kg oral, 90 min after drug feeding): 32.1±1.62% | hypoglycemic effect, dose dependence ([2]; NIDDM insulin-resistant rats, oral): dose-dependent hypoglycemic effect | reduction of blood sugar (NIDDM SD rats): 28.3±1.67% | reduction of blood sugar (normal SD rats; 0.1 mg/kg oral): 25.72±4.03% | reduction of blood sugar (normal SD rats; 0.5 mg/kg oral): 35.53±2.0% | blood sugar reduction, dose dependence (normal SD rats; normal SD rats, 0.05, 0.1, 0.5 mg/kg oral, 90 min): dose-dependent manner | reduction of blood sugar (IDDM SD rats; 0.1 mg/kg oral): 21.00±5.84% | reduction of blood sugar (IDDM SD rats; 0.5 mg/kg oral): 23.00±1.89%
